From patent US8192717B2, “Composition for diagnosing amyloid-related diseases” (Nagasaki University, priority 2004, dated 2012)

Assay: Radioactivity distribution in mouse body after intravenous administration of radioiodine labeled forms
Details: mouse, intravenous administration, mean (SD) of 3 to 5 mice
Protocol: Thereafter, 100 μl (0.5 to 1 μCi) of each labeled form was intravenously administered to each group consisting of three to five 5-week-old ddY male mice (25 to 30 g). 2, 10, 30, and 60 minutes after the intravenous administration, such mice were decapitated, and blood was collected. Thereafter, organs were excised, and the weight and radioactivity thereof were then measured.

| Structure (SMILES) | Distribution of radioactivity, Blood (2 min after administration) | Distribution of radioactivity, Blood (10 min after administration) | Distribution of radioactivity, Blood (30 min after administration) | Distribution of radioactivity, Blood (60 min after administration) | Distribution of radioactivity, Brain (2 min after administration) | Distribution of radioactivity, Brain (10 min after administration) | Distribution of radioactivity, Brain (30 min after administration) | Distribution of radioactivity, Brain (60 min after administration) | Distribution of radioactivity, Heart (2 min after administration) | Distribution of radioactivity, Heart (10 min after administration) | Distribution of radioactivity, Heart (30 min after administration) | Distribution of radioactivity, Heart (60 min after administration) | Distribution of radioactivity, Intestine (2 min after administration) | Distribution of radioactivity, Intestine (10 min after administration) | Distribution of radioactivity, Intestine (30 min after administration) | Distribution of radioactivity, Intestine (60 min after administration) | Distribution of radioactivity, Kidney (2 min after administration) | Distribution of radioactivity, Kidney (10 min after administration) | Distribution of radioactivity, Kidney (30 min after administration) | Distribution of radioactivity, Kidney (60 min after administration) | further results |
| --- | --- | --- | --- | --- | --- | --- | --- | --- | --- | --- | --- | --- | --- | --- | --- | --- | --- | --- | --- | --- | --- |
| CNc1ccc(-c2cc(=O)c3cc([125I])ccc3o2)cc1 [[125I]Compound 10] | 1.89 (0.28) % ID/g | 1.39 (0.10) % ID/g | 1.34 (0.07) % ID/g | 1.50 (0.09) % ID/g | 4.12 (0.15) % ID/g | 3.68 (0.18) % ID/g | 1.84 (0.12) % ID/g | 1.19 (0.04) % ID/g | 4.87 (0.66) % ID/g | 2.66 (0.12) % ID/g | 1.67 (0.14) % ID/g | 1.28 (0.12) % ID/g | 3.10 (0.61) % ID/g | 7.91 (1.05) % ID/g | 12.84 (1.18) % ID/g | 21.48 (3.17) % ID/g | 8.13 (1.28) % ID/g | 5.21 (0.44) % ID/g | 3.85 (0.33) % ID/g | 3.05 (0.25) % ID/g | Distribution of radioactivity, Liver (2 min after administration): 16.28 (0.90) % ID/g; Distribution of radioactivity, Liver (10 min after administration): 25.28 (0.31) % ID/g; Distribution of radioactivity, Liver (30 min after administration): 18.61 (1.81) % ID/g; Distribution of radioactivity, Liver (60 min after administration): 15.14 (0.89) % ID/g; Distribution of radioactivity, Spleen (2 min after administration): 2.57 (1.54) % ID/g; Distribution of radioactivity, Spleen (10 min after administration): 2.31 (0.01) % ID/g; Distribution of radioactivity, Spleen (30 min after administration): 1.76 (0.23) % ID/g; Distribution of radioactivity, Spleen (60 min after administration): 1.52 (0.29) % ID/g |
| CN(C)c1ccc(-c2cc(=O)c3cc([125I])ccc3o2)cc1 [[125I]Compound 11] | 1.87 (0.18) % ID/g | 1.07 (0.08) % ID/g | 1.20 (0.15) % ID/g | 1.15 (0.16) % ID/g | 3.22 (0.15) % ID/g | 3.61 (0.60) % ID/g | 1.89 (0.21) % ID/g | 0.99 (0.10) % ID/g | 5.63 (0.80) % ID/g | 2.47 (0.14) % ID/g | 1.69 (0.06) % ID/g | 1.07 (0.17) % ID/g | 2.24 (0.24) % ID/g | 6.56 (0.83) % ID/g | 12.97 (1.15) % ID/g | 18.64 (2.05) % ID/g | 8.33 (1.47) % ID/g | 4.31 (0.28) % ID/g | 3.40 (0.31) % ID/g | 2.32 (0.45) % ID/g | Distribution of radioactivity, Liver (2 min after administration): 15.41 (0.98) % ID/g; Distribution of radioactivity, Liver (10 min after administration): 21.85 (2.14) % ID/g; Distribution of radioactivity, Liver (30 min after administration): 15.71 (0.96) % ID/g; Distribution of radioactivity, Liver (60 min after administration): 12.40 (2.38) % ID/g; Distribution of radioactivity, Spleen (2 min after administration): 2.72 (0.20) % ID/g; Distribution of radioactivity, Spleen (10 min after administration): 1.92 (0.33) % ID/g; Distribution of radioactivity, Spleen (30 min after administration): 1.58 (0.31) % ID/g; Distribution of radioactivity, Spleen (60 min after administration): 1.18 (0.17) % ID/g |
| COc1ccc(-c2cc(=O)c3cc([125I])ccc3o2)cc1 [[125I]Compound 19] | 1.87 (0.21) % ID/g | 1.19 (0.17) % ID/g | 0.40 (0.01) % ID/g | 0.23 (0.09) % ID/g | 4.00 (0.18) % ID/g | 2.36 (0.33) % ID/g | 0.51 (0.07) % ID/g | 0.17 (0.05) % ID/g | 4.98 (0.41) % ID/g | 2.25 (0.40) % ID/g | 0.84 (0.14) % ID/g | 0.47 (0.22) % ID/g | 3.52 (0.29) % ID/g | 14.39 (0.80) % ID/g | 22.51 (1.11) % ID/g | 30.05 (3.61) % ID/g | 7.99 (1.08) % ID/g | 6.30 (1.02) % ID/g | 4.51 (1.59) % ID/g | 1.46 (1.12) % ID/g | Distribution of radioactivity, Liver (2 min after administration): 8.96 (1.48) % ID/g; Distribution of radioactivity, Liver (10 min after administration): 9.01 (0.97) % ID/g; Distribution of radioactivity, Liver (30 min after administration): 3.75 (0.47) % ID/g; Distribution of radioactivity, Liver (60 min after administration): 1.88 (0.61) % ID/g; Distribution of radioactivity, Spleen (2 min after administration): 2.70 (0.08) % ID/g; Distribution of radioactivity, Spleen (10 min after administration): 1.38 (0.37) % ID/g; Distribution of radioactivity, Spleen (30 min after administration): 0.55 (0.30) % ID/g; Distribution of radioactivity, Spleen (60 min after administration): 3.67 (5.89) % ID/g |
| O=c1cc(-c2ccc(O)cc2)oc2ccc([125I])cc12 [[125I]Compound 20] | 2.77 (0.43) % ID/g | 1.58 (0.18) % ID/g | 0.66 (0.03) % ID/g | 0.20 (0.02) % ID/g | 3.31 (0.32) % ID/g | 1.90 (0.07) % ID/g | 0.52 (0.03) % ID/g | 0.08 (0.02) % ID/g | 5.51 (0.71) % ID/g | 1.60 (0.18) % ID/g | 0.53 (0.04) % ID/g | 0.12 (0.02) % ID/g | 3.12 (0.37) % ID/g | 11.26 (0.63) % ID/g | 22.01 (1.34) % ID/g | 27.28 (0.48) % ID/g | 14.79 (2.59) % ID/g | 15.11 (2.00) % ID/g | 6.45 (0.84) % ID/g | 1.66 (0.62) % ID/g | Distribution of radioactivity, Liver (2 min after administration): 9.77 (1.89) % ID/g; Distribution of radioactivity, Liver (10 min after administration): 8.24 (0.50) % ID/g; Distribution of radioactivity, Liver (30 min after administration): 6.80 (0.86) % ID/g; Distribution of radioactivity, Liver (60 min after administration): 4.78 (1.09) % ID/g; Distribution of radioactivity, Spleen (2 min after administration): 3.92 (1.18) % ID/g; Distribution of radioactivity, Spleen (10 min after administration): 1.55 (0.15) % ID/g; Distribution of radioactivity, Spleen (30 min after administration): 0.56 (0.13) % ID/g; Distribution of radioactivity, Spleen (60 min after administration): 0.17 (0.06) % ID/g |
| COc1cc(/C=C/C(=O)c2cccc([125I])c2)ccc1O [[125I]Compound 31] | 4.90 (0.52) % ID/g | 3.80 (0.91) % ID/g | 1.84 (0.31) % ID/g | 1.15 (0.44) % ID/g | 2.52 (0.20) % ID/g | 1.28 (0.17) % ID/g | 0.40 (0.11) % ID/g | 0.35 (0.05) % ID/g | 5.58 (0.99) % ID/g | 2.88 (1.02) % ID/g | 1.44 (0.34) % ID/g | 1.38 (0.34) % ID/g | 2.50 (0.31) % ID/g | 10.52 (1.82) % ID/g | 20.60 (6.13) % ID/g | 29.31 (3.26) % ID/g | 11.99 (3.60) % ID/g | 9.16 (2.76) % ID/g | 5.00 (2.27) % ID/g | 4.31 (0.81) % ID/g | Distribution of radioactivity, Liver (2 min after administration): 15.71 (1.27) % ID/g; Distribution of radioactivity, Liver (10 min after administration): 18.55 (2.68) % ID/g; Distribution of radioactivity, Liver (30 min after administration): 7.67 (1.68) % ID/g; Distribution of radioactivity, Liver (60 min after administration): 4.05 (0.61) % ID/g; Distribution of radioactivity, Spleen (2 min after administration): 2.57 (0.42) % ID/g; Distribution of radioactivity, Spleen (10 min after administration): 1.80 (0.30) % ID/g; Distribution of radioactivity, Spleen (30 min after administration): 1.03 (0.04) % ID/g; Distribution of radioactivity, Spleen (60 min after administration): 0.88 (0.15) % ID/g |
